Literature values as cited in patent US8648085B2, “1, 5-dihydro-pyrazolo (3, 4-D) pyrimidin-4-one derivatives and their use as PDE9A mudulators for the treatment of CNS disorders” (Boehringer Ingelheim International GmbH, priority 2007, dated 2014).

Assays:
[1] = molecular target: T1, Murine PDE9A (Mus musculus, UniProt O70628); conditions: concentrations below 200 [mu]M; cited from earlier work
T1 sequence (O70628 1-534): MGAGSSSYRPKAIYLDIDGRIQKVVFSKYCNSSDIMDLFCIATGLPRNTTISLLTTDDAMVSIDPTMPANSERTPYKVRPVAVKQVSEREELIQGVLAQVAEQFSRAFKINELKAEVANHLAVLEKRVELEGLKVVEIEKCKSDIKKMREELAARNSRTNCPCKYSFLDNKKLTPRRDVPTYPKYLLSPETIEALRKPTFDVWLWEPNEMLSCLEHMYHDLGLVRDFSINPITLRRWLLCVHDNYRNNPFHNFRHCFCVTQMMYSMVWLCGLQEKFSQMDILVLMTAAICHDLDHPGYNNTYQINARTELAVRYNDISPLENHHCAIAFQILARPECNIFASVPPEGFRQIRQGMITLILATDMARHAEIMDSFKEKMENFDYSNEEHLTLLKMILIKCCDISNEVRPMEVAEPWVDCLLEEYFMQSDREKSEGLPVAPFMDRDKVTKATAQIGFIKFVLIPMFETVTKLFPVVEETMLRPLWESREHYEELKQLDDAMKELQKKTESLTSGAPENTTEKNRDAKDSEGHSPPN

[2] = molecular target: PDE9A (Homo sapiens, UniProt O76083); conditions: concentrations of up to 100 [mu]M; cited from earlier work
Chain of PDE9A (O76083 whole entry): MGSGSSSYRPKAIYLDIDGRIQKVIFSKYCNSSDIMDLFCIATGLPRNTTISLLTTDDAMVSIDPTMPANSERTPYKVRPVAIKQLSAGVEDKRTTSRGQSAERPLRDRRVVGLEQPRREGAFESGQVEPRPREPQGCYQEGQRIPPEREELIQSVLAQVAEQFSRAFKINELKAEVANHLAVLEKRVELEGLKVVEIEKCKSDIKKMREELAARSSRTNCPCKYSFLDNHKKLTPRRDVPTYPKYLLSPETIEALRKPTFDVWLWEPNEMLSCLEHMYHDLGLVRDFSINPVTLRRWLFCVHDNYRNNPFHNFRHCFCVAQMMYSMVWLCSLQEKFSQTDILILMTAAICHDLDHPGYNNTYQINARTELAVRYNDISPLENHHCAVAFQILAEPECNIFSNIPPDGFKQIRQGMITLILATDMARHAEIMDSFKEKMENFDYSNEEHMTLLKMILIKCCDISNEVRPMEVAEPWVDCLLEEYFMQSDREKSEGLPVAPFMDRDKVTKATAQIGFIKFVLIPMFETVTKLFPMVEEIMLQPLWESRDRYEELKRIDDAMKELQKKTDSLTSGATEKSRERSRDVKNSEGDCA

**Q.** For `CC(C)Cn1c(=O)n(C)c(=O)c2[nH]cnc21` [IBMX], which “inhibition of murine PDE9A” value [1] is on record?
**A.** The value was “not inhibited”.

**Q.** And the “inhibition on the isolated enzyme (human PDE9A)” value [2]?
**A.** Its value is “no inhibition”.
